Measurements taken from patent US11866429B2, “Heteroaryl-biphenyl amines for the treatment of PD-L1 diseases” (CHEMOCENTRYX, INC., priority 2019, dated 2024).

The compounds below were run against human PD-L1 (Homo sapiens (Human), UniProt Q9NZQ7) (assay: Enzyme-Linked Immunosorbent Assay (ELISA), PD-1/PD-L1 binding). Conditions: plates coated with human PD-L1; Human PD-1 and biotin added; absorbance at 450 nm.
Description: 96 Well plates were coated with 1 μg/mL of human PD-L1 (obtained from R&D) in PBS overnight at 4° C. The wells were then blocked with 2% BSA in PBS (W/V) with 0.05% TWEEN-20 for 1 hour at 37° C. The plates were washed 3 times with PBS/0.05% TWEEN-20 and the compounds were serial diluted (1:5) in dilution medium and added to the ELISA plates. Human PD-1 and biotin 0.3 μg/mL (ACRO Biosystems) were added and incubated for 1 hour at 37° C. then washed 3 times with PBS/0.05% TWEEN-20. A second block was performed with 2% BSA in PBS (W/V)/0.05% TWEEN-20 for 10 min at 37° C. and the plates were washed 3 times with PBS/0.05% TWEEN-20. Streptavidin-HRP was added for 1 hour at 37° C. then the plates were washed 3 times with PBS/0.05% TWEEN-20. TMB substrate was added and reacted for 20 min at 37° C. A stop solution (2 N aqueous […]) was added. The absorbance was read at 450 nm using a micro-plate spectrophotometer.

human PD-L1, sequence (Q9NZQ7 19-239): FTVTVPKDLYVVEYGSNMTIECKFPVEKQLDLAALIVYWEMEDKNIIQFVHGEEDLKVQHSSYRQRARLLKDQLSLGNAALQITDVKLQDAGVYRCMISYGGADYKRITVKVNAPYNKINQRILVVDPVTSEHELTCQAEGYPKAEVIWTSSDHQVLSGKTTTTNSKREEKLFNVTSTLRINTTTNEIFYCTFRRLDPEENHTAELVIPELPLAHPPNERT

IC50 [nM] | Structure (SMILES)
< 10 | Cc1nc(Nc2cccc(-c3cccc(-c4ccc(CNC[C@@H]5CCC(=O)N5)c(C)n4)c3Cl)c2C)c2ncccc2n1 [Compound 1.048]
< 10 | COc1nc(-c2cccc(-c3cccc(Nc4nc(C)nc5cccnc45)c3C)c2Cl)cnc1CNCCCO [Compound 1.006]
< 10 | COc1nc(-c2cccc(-c3cccc(Nc4nc(C)nc5cccnc45)c3C)c2Cl)ccc1CNCC(C)(C)C(N)=O [Compound 1.015]
< 10 | COc1nc(-c2cccc(-c3cccc(Nc4nc(C)nc5cccnc45)c3C)c2Cl)ccc1CN[C@H]1CC[C@@H]1O [Compound 1.018]
< 10 | COc1nc(-c2cccc(-c3cccc(Nc4nc(C)nc5cccnc45)c3C)c2Cl)ccc1CNC(CO)CO [Compound 1.056]
< 10 | COc1nc(-c2cccc(-c3cccc(Nc4nc(C)nc5cccnc45)c3Cl)c2Cl)ccc1CN1CC(C)(C(=O)O)C1 [Compound 1.072]
< 10 | COc1nc(-c2cccc(-c3cccc(Nc4nc(C)nc5cccnc45)c3C)c2Cl)ccc1CN1CC2(CCC(=O)N2)C1 [Compound 1.053]
< 10 | COc1nc(-c2cccc(-c3cccc(Nc4nc(C)nc5cccnc45)c3C)c2Cl)ccc1CN1CCC[C@@H](C(=O)O)C1 [Compound 1.022]
< 10 | COc1nc(-c2cccc(-c3cccc(Nc4nc(C)nc5cccnc45)c3C)c2Cl)ccc1CN(C)[C@@H]1CCOC[C@@H]1O [Compound 1.042]
< 10 | COc1nc(-c2cccc(-c3cccc(Nc4nc(C)nc5cccnc45)c3Cl)c2F)ccc1CN[C@@H]1CCOC[C@@H]1O [Compound 1.009]
< 10 | COc1nc(-c2cccc(-c3cccc(Nc4nc(C)nc5cccnc45)c3C)c2Cl)ccc1CN1CC2(CCNC2=O)C1 [Compound 1.037]
< 10 | COc1nc(-c2cccc(-c3cccc(Nc4nc(C)nc5cccnc45)c3C)c2Cl)ccc1CN1CC(C(=O)O)C1 [Compound 1.066]
< 10 | COc1nc(-c2cccc(-c3cccc(Nc4nc(C(F)(F)F)nc5cccnc45)c3C)c2Cl)ccc1CNC[C@@H]1CCC(=O)N1 [Compound 1.070]
< 10 | COc1nc(-c2cccc(-c3cccc(Nc4nc(C)nc5cccnc45)c3C)c2Cl)ccc1CN1CC[C@@](C)(C(=O)O)C1 [Compound 1.033]
< 10 | COc1nc(-c2cccc(-c3cccc(Nc4nc(C)nc5cccnc45)c3C)c2Cl)ccc1CN1CC[C@@H](C(=O)O)C1 [Compound 1.044]
< 10 | COc1nc(-c2cccc(-c3cccc(Nc4nc(C)nc5cccnc45)c3Cl)c2Cl)ccc1CNC[C@@H]1CCC(=O)N1 [Compound 1.074]
< 10 | COc1nc(-c2cccc(-c3cccc(Nc4nc(C)nc5cccnc45)c3C)c2Cl)ccc1CN(C)CCO [Compound 1.021]
< 10 | COc1nc(-c2cccc(-c3cccc(Nc4nccc5nccnc45)c3C)c2Cl)ccc1CN[C@@H]1CCOC[C@@H]1O [Compound 1.075]
< 10 | COc1nc(-c2cccc(-c3cccc(Nc4nc(C)nc5cccnc45)c3C)c2Cl)ccc1CN1CCC(O)CC1 [Compound 1.043]
< 10 | COc1nc(-c2cccc(-c3cccc(Nc4nc(C)nc5cccnc45)c3C)c2F)ccc1CN[C@@H]1CCOC[C@@H]1O [Compound 1.012]

IC50 [nM] | Structure (SMILES)
< 10 | COc1nc(-c2cccc(-c3cccc(Nc4nc(C(F)(F)F)nc5cccnc45)c3C)c2Cl)ccc1CN1CC(C)(C(=O)O)C1 [Compound 1.069]
< 10 | COc1nc(-c2cccc(-c3cccc(Nc4nc(C)nc5cccnc45)c3C)c2Cl)ccc1CN1CC[C@@H](O)C1 [Compound 1.040]
< 10 | COc1nc(-c2cccc(-c3cccc(Nc4nc(C)nc5cccnc45)c3C)c2Cl)ccc1CN[C@H]1CCOC[C@H]1O [Compound 1.047]
< 10 | COc1nc(-c2cccc(-c3cccc(Nc4nc(C)nc5cccnc45)c3C)c2Cl)ccc1CN[C@@H]1CCOC[C@@H]1O [Compound 1.064]
< 10 | COc1nc(-c2cccc(-c3cccc(Nc4nc(C)nc5cccnc45)c3C)c2Cl)ccc1CNC1CCOCC1 [Compound 1.052]
< 10 | COc1nc(-c2cccc(-c3cccc(Nc4nc(C)nc5cccnc45)c3C)c2Cl)ccc1CNC1CCNCC1 [Compound 1.019]
< 10 | COc1nc(-c2cccc(-c3cccc(Nc4nccc5nccnc45)c3Cl)c2Cl)ccc1CNC[C@@H]1CCC(=O)N1 [Compound 1.084]
< 10 | COc1nc(-c2cccc(-c3cccc(Nc4nc(C)nc5cccnc45)c3C)c2Cl)ccc1CNCC(C)(C)O [Compound 1.061]
< 10 | COc1nc(-c2cccc(-c3cccc(Nc4nccc5nccnc45)c3Cl)c2Cl)ccc1CN1CC(O)C1 [Compound 1.079]
< 10 | COc1nc(-c2cccc(-c3cccc(Nc4nc(C)nc5cccnc45)c3C)c2Cl)ccc1CN1CCC(C)(O)CC1 [Compound 1.063]
< 10 | COc1nc(-c2cccc(-c3cccc(Nc4nc(C)nc5cccnc45)c3C)c2Cl)ccc1CN[C@H]1CCC(=O)NC1 [Compound 1.023]
< 10 | COc1nc(-c2cccc(-c3cccc(Nc4nc(C)nc5cccnc45)c3C)c2Cl)ccc1CN[C@H]1CCOC1 [Compound 1.059]
< 10 | COc1nc(-c2cccc(-c3cccc(Nc4nccc5nccnc45)c3Cl)c2Cl)cnc1CN[C@@H]1CCOC[C@@H]1O [Compound 1.001]
< 10 | COc1nc(-c2cccc(-c3cccc(Nc4nccc5nccnc45)c3C)c2Cl)ccc1CN1CC(C(=O)O)C1 [Compound 1.076]
< 10 | COc1nc(-c2cccc(-c3cccc(Nc4ncnc5cccnc45)c3Cl)c2Cl)ccc1CNC[C@@H]1CCC(=O)N1 [Compound 1.071]
< 10 | COc1nc(-c2cccc(-c3cccc(Nc4nc(C(C)C)nc5cccnc45)c3C)c2Cl)ccc1CNC[C@@H]1CCC(=O)N1 [Compound 1.068]
< 10 | COc1nc(-c2cccc(-c3cccc(Nc4nc(C)nc5cccnc45)c3C)c2Cl)ccc1CN[C@H]1CNC(=O)C1 [Compound 1.024]
< 10 | COc1nc(-c2cccc(-c3cccc(Nc4nc(C)nc5cccnc45)c3C)c2Cl)ccc1CNC(C)(C)C(=O)O [Compound 1.030]
< 10 | COc1nc(-c2cccc(-c3cccc(Nc4nccc5nccnc45)c3Cl)c2Cl)ccc1CN1CC(C(=O)O)C1 [Compound 1.082]
< 10 | COc1nc(-c2cccc(-c3cccc(Nc4nc(C)nc5cccnc45)c3C)c2Cl)ccc1CNC(C)(C)CCO [Compound 1.050]

IC50 [nM] | Structure (SMILES)
< 10 | COc1nc(-c2cccc(-c3cccc(Nc4nc(C)nc5cccnc45)c3C)c2Cl)ccc1CN1CCCC[C@H]1C(=O)O [Compound 1.036]
< 10 | COc1nc(-c2cccc(-c3cccc(Nc4nc(C)nc5cccnc45)c3Cl)c2F)ccc1CNC[C@@H]1CCC(=O)N1 [Compound 1.011]
< 10 | COc1nc(-c2cccc(-c3cccc(Nc4nc(C)nc5cccnc45)c3C)c2Cl)ccc1CNCCn1ccnc1 [Compound 1.032]
< 10 | COc1nc(-c2cccc(-c3cccc(Nc4nc(C)nc5cccnc45)c3C)c2Cl)ccc1CNC[C@@H](O)CC(=O)O [Compound 1.035]
< 10 | COc1nc(-c2cccc(-c3cccc(Nc4nc(C)nc5cccnc45)c3C)c2Cl)ccc1CNCC(C)(C)C(=O)O [Compound 1.060]
< 10 | COc1nc(-c2cccc(-c3cccc(Nc4nc(C)nc5cccnc45)c3C)c2Cl)ccc1CNCc1ncc[nH]1 [Compound 1.025]
< 10 | COc1nc(-c2cccc(-c3cccc(Nc4nccc5nccnc45)c3Cl)c2Cl)cnc1CN1CC(C)(C(=O)O)C1 [Compound 1.003]
< 10 | CNCc1ccc(-c2cccc(-c3cccc(Nc4nc(C)nc5cccnc45)c3C)c2Cl)nc1OC [Compound 1.038]
< 10 | CCOc1nc(-c2cccc(-c3cccc(Nc4nc(C)nc5cccnc45)c3C)c2Cl)ccc1CNC[C@@H]1CCC(=O)N1 [Compound 1.014]
< 10 | COc1nc(-c2cccc(-c3cccc(Nc4nccc5nccnc45)c3Cl)c2Cl)ccc1CN[C@@H]1CNC(=O)C1 [Compound 1.081]
< 10 | COc1nc(-c2cccc(-c3cccc(Nc4nc(C)nc5cccnc45)c3C)c2F)ccc1CNC[C@@H]1CCC(=O)N1 [Compound 1.013]
< 10 | COc1nc(-c2cccc(-c3cccc(Nc4nc(C)nc5cccnc45)c3C)c2Cl)ccc1CN1CC(C)(C(=O)O)C1 [Compound 1.065]
< 10 | COc1nc(-c2cccc(-c3cccc(Nc4nc(C)nc5cccnc45)c3C)c2Cl)ccc1CNC[C@H](O)CC(=O)O [Compound 1.016]
< 10 | COc1nc(-c2cccc(-c3cccc(Nc4nc(C)nc5cccnc45)c3C)c2Cl)cnc1CNCC1(O)CC1 [Compound 1.005]
< 10 | COc1nc(-c2cccc(-c3cccc(Nc4nc(C)nc5cccnc45)c3C)c2Cl)ccc1CN1CCOCC1 [Compound 1.049]
< 10 | COc1nc(-c2cccc(-c3cccc(Nc4nc(C)nc5cccnc45)c3C)c2Cl)ccc1CNC[C@H](O)CO [Compound 1.027]
< 10 | COc1nc(-c2cccc(-c3cccc(Nc4nc(C)nc5cccnc45)c3C)c2Cl)ccc1CN[C@@H]1CCC(=O)NC1 [Compound 1.054]
< 10 | COc1nc(-c2cccc(-c3cccc(Nc4nc(C)nc5cccnc45)c3C)c2Cl)ccc1CNC1CNC1 [Compound 1.017]
< 10 | COc1nc(-c2cccc(-c3cccc(Nc4nc(C)nc5cccnc45)c3C)c2Cl)ccc1CN1CC(O)C1 [Compound 1.058]
< 10 | COc1nc(-c2cccc(-c3cccc(Nc4nc(C)nc5cccnc45)c3C)c2Cl)ccc1CNCC(N)=O [Compound 1.041]
